Series [1] concerns the target Neuronal acetylcholine receptor subunit alpha-7 (Rattus norvegicus, UniProt Q05941). The series is described as follows: Displacement of [125I]-alpha-bungarotoxin from alpha7 nicotinic acetylcholine receptor in Wistar rat frontal cortex by gamma counting. It counts as tissue-based. In general terms: In a radioligand displacement assay an active substance lowers the binding of a labelled ligand.

In series [2] the test system is Brain. In words: Biodistribution in Wistar rat brain at 5 +/- 2 MBq, iv after 60 mins by gamma counting. It counts as ADME, organism-based. To be noted: in vivo, 1 h.
The test system of series [3] is Cortex. In words: Biodistribution in Wistar rat cortex at 5 +/- 2 MBq, iv after 60 mins by gamma counting in presence of alpha7 nAChR antagonist methyllycaconitine. It counts as organism-based. As to conditions: in vivo, 1 h; call rule not given here.
Series [4] deals with Striatum. The series is described as follows: Biodistribution in Wistar rat striatum at 5 +/- 2 MBq, iv after 60 mins by gamma counting in presence of alpha7 nAChR antagonist methyllycaconitine. To be noted: in vivo, 1 h. It counts as organism-based.
Series [5] relates to Hippocampus. In words: Biodistribution in Wistar rat hippocampus at 5 +/- 2 MBq, iv after 60 mins by gamma counting in presence of alpha7 nAChR antagonist methyllycaconitine. It counts as organism-based. As to conditions: in vivo, 1 h.
For series [6], the system named is Hypothalamus. The series is described as follows: Biodistribution in Wistar rat hypothalamus at 5 +/- 2 MBq, iv after 60 mins by gamma counting in presence of alpha7 nAChR antagonist methyllycaconitine. As to conditions: in vivo, 1 h. It is filed as organism-based.
In series [7] the test system is Midbrain. The series is described as follows: Biodistribution in Wistar rat midbrain at 5 +/- 2 MBq, iv after 60 mins by gamma counting in presence of alpha7 nAChR antagonist methyllycaconitine. It is filed as organism-based, Brain. As to conditions: in vivo, 1 h.
Series [8] relates to Cerebellum. In words: Biodistribution in Wistar rat cerebellum at 5 +/- 2 MBq, iv after 60 mins by gamma counting in presence of alpha7 nAChR antagonist methyllycaconitine. It is filed as organism-based. As to conditions: in vivo, 1 h.

Molecules are shown by their SMILES.

Neuronal acetylcholine receptor subunit alpha-7, sequence (Q05941 whole entry): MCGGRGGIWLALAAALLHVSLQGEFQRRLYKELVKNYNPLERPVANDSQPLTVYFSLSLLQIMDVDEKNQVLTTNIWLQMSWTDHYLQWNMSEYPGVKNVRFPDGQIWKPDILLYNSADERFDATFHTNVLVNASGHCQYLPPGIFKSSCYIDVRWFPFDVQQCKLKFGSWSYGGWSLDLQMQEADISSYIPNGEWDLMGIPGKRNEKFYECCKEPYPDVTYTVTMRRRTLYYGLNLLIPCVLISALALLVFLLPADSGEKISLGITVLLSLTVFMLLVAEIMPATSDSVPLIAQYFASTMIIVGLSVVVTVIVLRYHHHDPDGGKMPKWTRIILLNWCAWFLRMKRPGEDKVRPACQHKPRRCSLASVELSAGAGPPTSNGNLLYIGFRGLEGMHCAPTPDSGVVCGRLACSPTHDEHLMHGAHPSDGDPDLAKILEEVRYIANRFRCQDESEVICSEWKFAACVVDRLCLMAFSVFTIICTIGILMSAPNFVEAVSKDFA

The term Ki denotes the equilibrium dissociation constant of an inhibitor or competing ligand from its target. In series [1], `CN1[C@@H]2CC[C@H]1C[C@@H](NC(=O)c1ccc(Cl)cc1)C2` showed an inhibitory constant (Ki) of over 1000 nM.

`CN1[C@@H]2CC[C@H]1C[C@@H](NC(=O)c1cccs1)C2` registered an inhibition constant Ki in series [1] of over 1000 nM.

In series [1], `CN1[C@@H]2CC[C@H]1C[C@@H](NC(=O)c1ccc(Br)s1)C2` came in with a Ki of 78 nM.

Turning to `CN1[C@@H]2CC[C@H]1C[C@@H](NC(=O)c1ccc3sccc3c1)C2`, in series [1], the inhibition constant (Ki) worked out at 108 nM.

In turn, `CN1[C@@H]2CC[C@H]1C[C@@H](NC(=O)c1ccc3occc3c1)C2` returned an inhibition constant Ki in series [1] of 133 nM.

`CN1[C@@H]2CC[C@H]1C[C@@H](NC(=O)c1ccc(-c3cccs3)s1)C2` registered a Ki in series [1] of 12 nM.

As to `CN1[C@@H]2CC[C@H]1C[C@@H](NC(=O)c1ccc(-c3ccco3)s1)C2`, in series [1], the inhibitory constant (Ki) is 14 nM.

Regarding `O=C(N[C@H]1CN2CCC1CC2)c1ccc([18F])cc1`, the Drug uptake entry in series [2] is recorded as “Active”; in series [3], “Not Active”; in series [4] it was “Not Active”; in series [5] it was “Not Active”; in series [6], “Not Active”; in series [7], “Not Active”. For the same compound, the Drug uptake result in series [8] is reported as “Not Active”.

Source of the values: ChEMBL document CHEMBL3286186, “Design of α7 nicotinic acetylcholine receptor ligands in quinuclidine, tropane and quinazoline series. Chemistry, molecular modeling, radiochemistry, in vitro and in rats evaluations of a [(18)F] quinuclidine derivative” (Eur J Med Chem, 2014).
